Experimental findings from patent US8445689B2, “Pesticides” (Dow AgroSciences, LLC., priority 2008, dated 2013) are described below.

Where two headings read alike, the source gives them in different places. Bounds are passed on as bounds.

For data set [1], the system named is Green Peach Aphid (Myzus persicae). As to the kind of experiment: Insecticidal test for green peach aphid in foliar spray assay on cabbage. To be noted: 72 h, read-out: Rating against green peach aphid on cabbage (foliar spray). It is filed as in vivo. The procedure: Compounds 1-67 were tested against green peach aphid using procedures described hereinafter.
Insecticidal Test for Green Peach Aphid (Myzus persicae) in Foliar Spray Assay
Cabbage seedlings grown in 3-inch pots, with 2-3 small (3-5 cm) true leaves, were used as test substrate. The seedlings were infested with 20-50 green peach aphids (wingless adult and nymph) 1-2 d prior to chemical application. Four seedlings were used for each treatment. Compounds (2 mg) were dissolved in 2 mL of acetone-methanol (1:1) solvent, forming stock solutions of 1000 ppm. The stock solutions were diluted 5× with 0.025% Tween 20 in H2O to obtain a solution at 200 ppm. A hand-held Devilbiss aspirator sprayer was used for spraying a solution to both sides of cabbage leaves until runoff. Reference plants (solvent check) were sprayed with the diluent only. Treated plants were held in a holding room for 3 d at approximately 23° C. and 40% RH prior to grading. Evaluation was conducted by counting the number of live aphids per plant under a microscope. Insecticidal activity was measured by using Abbott's correction formula: Corrected % Control=100*(X−Y)/X • where X=No. of live aphids on solvent check plants • Y=No. of live aphids on treated plants

Setting [2] is: 200 ppm foliar spray on cabbage seedlings, graded after 3 d, corrected % control (Abbott).

`CS(=O)(Cc1ccc(Cl)nc1)=NC(=S)NC(=O)OCC1c2ccccc2-c2ccccc21` (stereo not drawn) [Compound 30, 9H-Fluoren-9-ylmethyl{[[(6-chloropyridin-3-yl)methyl](methyl)oxido-λ^4-sulfanylidene]amino}carbonothioylcarbamate] gave a melting point of 98 to 101 °C. The pest or weed control at 200 ppm in data set [1] (foliar) is under 80%.
As to `CC(c1ccc(C(F)(F)F)nc1)S(C)(=O)=NC(N)=S` (stereo not drawn) [Compound 22, N-(methyl(oxido){1-[6-(trifluoromethyl)pyridin-3-yl]ethyl}-λ^4-sulfanylidene)thiourea], the melting point is 145 to 147 °C. Also, in data set [1] (setting [2]), the pest or weed control at 200 ppm is 80 to 100%.
For `CS(=O)(Cc1ccc(Cl)nc1)=NC(N)=S` (stereo not drawn) [Compound 31, N-[[(6-chloropyridin-3-yl)methyl](methyl)oxido-λ^4-sulfanylidene]thiourea] the same measures were 155 to 158 °C and 80 to 100%.
For `Cc1ccc(C(C)S(C)(=O)=NC(N)=S)cn1` (stereo not drawn) [Compound 33, N-{methyl[1-(6-methylpyridin-3-yl)ethyl]oxido-λ^4-sulfanylidene}-thiourea], in that order: 137 to 140 °C and 80 to 100%.
`CC(c1ccc(C(F)(F)F)cc1)S(C)(=O)=NC(N)=S` (stereo not drawn) [Compound 35, N-(methyl(oxido){1-[4-(trifluoromethyl)phenyl]ethyl}-λ^4-sulfanylidene)thiourea] displayed a melting point of 166 to 168 °C. Further, the pest or weed control at 200 ppm in data set [1] (setting [2]) is under 80%.
For `COC(=O)CCC(=O)NC(=S)N=S(C)(=O)C(C)c1ccc(C(F)(F)F)nc1` (stereo not drawn) [Compound 37, methyl 4-({[(methyl(oxido){1-[6-(trifluoromethyl)pyridin-3-yl]ethyl}-λ^4-sulfanylidene)amino]carbonothioyl}amino)-4-oxobutanoate], in that order: 131 to 133 °C and 80 to 100%.
For `CC(c1ccc(C(F)(F)F)nc1)S(C)(=O)=N/C(N)=N/O` (stereo not drawn) [Compound 38, N″-hydroxy-N-(methyl(oxido){1-[6-(trifluoromethyl)pyridin-3-yl]ethyl}-λ^4-sulfanylidene)guanidine], in that order: 157 to 159 °C and 80 to 100%.
For `CC(c1ccc(C(F)(F)F)nc1)S(C)(=O)=NC(=S)NC1CC1` (stereo not drawn) [Compound 15] the same measures were 154 to 156 °C and 80 to 100%.
Turning to `COc1ccc(NC(=S)N=S(C)(=O)C(C)c2ccc(C(F)(F)F)nc2)cc1` (stereo not drawn) [Compound 5], the melting point lay in the range of 167 to 169 °C. Besides, in data set [1] (setting [2]), the pest or weed control at 200 ppm was under 80%.
The compound `NC(=S)N=S1(=O)CCCC1c1ccc(Cl)nc1` (stereo not drawn) [Compound 36, N-[2-(6-chloropyridin-3-yl)-1-oxidotetrahydro-1H-1λ^4-thien-1-ylidene]thiourea] registered a melting point of 168 to 172 °C. In addition, the pest or weed control at 200 ppm in data set [1] (setting [2]) lay within 80 to 100%.
Take `CS(=O)(Cc1ccc(C(F)(F)F)nc1)=NC(=S)NC(=O)OCC1c2ccccc2-c2ccccc21` (stereo not drawn) [Compound 28, 9H-Fluoren-9-ylmethyl[(methyl(oxido){[6-(trifluoromethyl)pyridin-3-yl]methyl}-λ^4-sulfanylidene)amino]carbonothioylcarbamate]: the melting point is 92 to 97 °C. Also, the pest or weed control at 200 ppm in data set [1] (foliar) was under 80%.
Regarding `CC(c1ccc(C(F)(F)F)nc1)S(C)(=O)=NC(=S)NC1CCCCC1` (stereo not drawn) [Compound 7], the melting point was in the range of 170 to 172 °C. Moreover, the pest or weed control at 200 ppm in data set [1] (setting [2]) fell in the range of 80 to 100%.
On to `CC(c1ccc(C(F)(F)F)nc1)S(C)(=O)=NC(=S)Nc1ccc(OC(F)(F)F)cc1` (stereo not drawn) [Compound 21], for which the melting point lay in the range of 149 to 151 °C. Besides, in data set [1] (setting [2]), the pest or weed control at 200 ppm is under 80%.
As for `CS(=O)(Cc1ccc(Cl)nc1)=N/C(N)=N/O` (stereo not drawn) [Compound 39, N-[[(6-chloropyridin-3-yl)methyl](methyl)oxido-λ^4-sulfanylidene]-N″-hydroxyguanidine], the melting point was in the range of 156 to 158 °C. Besides, the pest or weed control at 200 ppm in data set [1] (setting [2]) lay in the range of 80 to 100%.
For `CC(c1ccc(C(F)(F)F)nc1)S(C)(=O)=NC(=S)Nc1ccc(Cl)cc1` (stereo not drawn) [Compound 20] the same measures were 181 to 183 °C and under 80%.
In turn, `CC(C)NC(=S)N=S(C)(=O)C(C)c1ccc(C(F)(F)F)nc1` (stereo not drawn) [Compound 14] yielded a melting point of 153 to 155 °C. For the same compound, in data set [1] (setting [2]), the pest or weed control at 200 ppm was 80 to 100%.
In turn, `CC(c1ccc(C(F)(F)F)nc1)S(C)(=O)=NC(=S)NC(=O)OCC1c2ccccc2-c2ccccc21` (stereo not drawn) [Compound 9] came in with a melting point of 105 to 107 °C. Also, the pest or weed control at 200 ppm in data set [1] (foliar) fell in the range of 80 to 100%.
For `CC(c1ccc(C(F)(F)F)cc1)S(C)(=O)=NC(=S)NC(=O)OCC1c2ccccc2-c2ccccc21` (stereo not drawn) [Compound 34, 9H-Fluoren-9-ylmethyl[(methyl(oxido){1-[4-(trifluoromethyl)phenyl]-ethyl}-λ^4-sulfanylidene)amino]carbonothioylcarbamate] the same measures were 86 to 93 °C and under 80%.

Usually melting point stands for the temperature of the solid-liquid transition.
